Data: publication PMC8271538, “Chemical Modulation of the 1-(Piperidin-4-yl)-1,3-dihydro-2H-benzo[d]imidazole-2-one Scaffold as a Novel NLRP3 Inhibitor” (Molecules, 2021)

Legend:
human recombinant NLRP3 = molecular target: T1, human recombinant NLRP3 (Homo sapiens, UniProt Q96P20); experiment: In vitro NLRP3 ATPase activity, on-bead ADP-Glo assay with immobilised NLRP3-GFP; format: biochemical
T1 construct: made in house; host or cells: HEK293T cells (transient transfection, captured from lysate on GFP-Trap Sepharose)
T1 sequence (Q96P20 whole entry): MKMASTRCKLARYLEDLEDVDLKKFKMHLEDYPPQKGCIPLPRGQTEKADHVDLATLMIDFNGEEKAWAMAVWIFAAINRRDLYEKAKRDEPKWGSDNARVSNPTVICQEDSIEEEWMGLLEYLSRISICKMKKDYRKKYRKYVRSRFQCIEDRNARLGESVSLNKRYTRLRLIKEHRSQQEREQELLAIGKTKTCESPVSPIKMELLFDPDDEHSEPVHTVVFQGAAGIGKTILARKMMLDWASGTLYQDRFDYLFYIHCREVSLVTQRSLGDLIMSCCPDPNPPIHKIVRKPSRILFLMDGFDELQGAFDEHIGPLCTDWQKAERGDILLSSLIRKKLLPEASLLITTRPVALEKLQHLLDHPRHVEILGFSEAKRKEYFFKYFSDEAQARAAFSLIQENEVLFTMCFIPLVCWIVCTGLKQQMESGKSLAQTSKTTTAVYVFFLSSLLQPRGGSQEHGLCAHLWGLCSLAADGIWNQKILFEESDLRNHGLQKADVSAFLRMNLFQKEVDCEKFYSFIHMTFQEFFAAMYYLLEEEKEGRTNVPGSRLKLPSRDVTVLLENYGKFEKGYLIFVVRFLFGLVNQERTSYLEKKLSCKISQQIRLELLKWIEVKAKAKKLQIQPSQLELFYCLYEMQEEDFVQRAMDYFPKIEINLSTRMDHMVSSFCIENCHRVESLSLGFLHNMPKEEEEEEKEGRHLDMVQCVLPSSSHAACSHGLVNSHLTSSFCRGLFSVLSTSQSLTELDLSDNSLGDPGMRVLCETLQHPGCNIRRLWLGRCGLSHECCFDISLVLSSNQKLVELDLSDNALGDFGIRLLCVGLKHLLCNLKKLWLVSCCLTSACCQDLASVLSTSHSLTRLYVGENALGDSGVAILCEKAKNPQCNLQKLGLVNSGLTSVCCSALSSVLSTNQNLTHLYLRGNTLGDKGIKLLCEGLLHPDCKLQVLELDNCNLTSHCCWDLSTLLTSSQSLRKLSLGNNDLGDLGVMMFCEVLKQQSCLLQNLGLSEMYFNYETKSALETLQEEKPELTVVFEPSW

[1] = test system: NLRP3-dependent pyroptosis in differentiated THP-1 cells; experiment: NLRP3-dependent pyroptosis (LDH release) in PMA-differentiated, LPS-primed, ATP-triggered THP-1 cells; format: cell-based, human; settings: for inhibition at 10 µM: THP-1, 1.5 h, read-out: Pyroptosis Decrease, % inhibition at 10 µM
THP-1 cells = settings: 72 h treatment, 0.1–100 µM, MTT; TC50 ± SEM of three experiments
[2] = test system: IL-1β release in differentiated THP-1 cells; experiment: IL-1β release (ELISA) in supernatants of LPS/ATP-treated differentiated THP-1 cells; format: cell-based, human; settings: Homo sapiens, THP-1, 10 µM test compound; same experiments as pyroptosis; vs vehicle-treated cells; mean ± SEM
Protocol: Different techniques could be used to study NLRP3 inhibitors; the use of differentiated THP-1 cells treated with NLRP3 activating stimuli is suitable for the screening of large series of compounds [48]. All the synthesised compounds (Figure 2) were evaluated for their NLRP3 inhibitory activity by measuring their ability to prevent NLRP3-dependent pyroptosis in differentiated THP-1 cells. THP-1 cells were differentiated into macrophages by treatment with phorbol-myristate acetate (PMA; 50 nM; 24 h) and then treated with lipopolysaccharide (LPS; 10 µg/mL; 4 h) to promote NLRP3 expression. The cells were then incubated with test compounds at the fixed concentration of 10 µM for 1 h. Test compounds were dissolved in serum free medium containing 0.1% DMSO as the vehicle. NLRP3 was activated by the addition of ATP (5 mM), and the pyroptotic cell death was evaluated after 1.5 h by measuring the lactate dehydrogenase (LDH) released in the cell supernatants. The obtained results, expressed as pyroptosis% decrease with respect to vehicle-treated cells, are collected in Table 1. In the same experiments, the release of IL-1β was measured via an ELISA assay and the results, expressed as % inhibition of IL-1β release versus vehicle-treated cells, are reported in Table 1. Finally, the cytotoxicity of the synthesised compounds was evaluated by MTT assay after treatment of THP-1 cells with increasing concentration of test compounds (0.1–100 µM) for 72 h. […] The structural modulation of compound 2 was then carried out in order to understand whether it was possible to restore/increase the activity without the re-introduction of a Michael acceptor substructure.
Human myelomonocytic THP-1 cells were cultured in RPMI 1640 medium (Aurogene, Rome, Italy) supplemented with fetal bovine serum (10%; Aurogene), L-glutamine (2 mM; Aurogene), penicillin (100 IU/mL; Aurogene) and streptomycin ([…]; Aurogene). Cell culture medium was replaced every 2−3 days, and the cultures were maintained at 37 °C and 5% CO2 in a fully humidified incubator. The day before each experiment, cells were plated in 48-well culture plates (90.000 cells/well) and were differentiated by treatment with PMA (50 nM, 24 h; Sigma-Aldrich). PMA-differentiated THP-1 cells were washed twice with phosphate-buffered saline (PBS) and primed with LPS (10 μg/mL, 4 h; Sigma-Aldrich) in serum-free medium. Cells were then incubated with compounds dissolved in medium containing 0.1% DMSO for 1 h and cell death was triggered with ATP (5 mM, 90 min; Sigma-Aldrich). MCC950 (Sigma-Aldrich batch #45216 and batch #85021 and from Crysdot (product n. CD31002496; OS05876-18070932) was used in the experiments.
IL-1β release was quantified in differentiated THP-1 supernatant, obtained as previously described, using Human IL-1 beta Uncoated ELISA kit (Invitrogen, Waltham, MA, USA), according to the manufacture’s instruction.

[3] = test system: isolated recombinant NLRP3; design: method as in PMID 28410442; settings: cited from earlier work
DNBS-induced colitis = test system: DNBS-induced colitis; design: method as in PMID 28410442, PMID 30559669; settings: oral administration in mice at both 50 and 25 mg/kg; cited from earlier work
[4] = 100 μM compound, ATP 800 μM, mean ± SEM, n = 4
[5] = Homo sapiens, 10 µM test compound, 1 h before ATP (5 mM, 90 min), vs vehicle-treated cells, mean ± SEM, NA = not active at 10 µM

SMILES	Inhibition of NLRP3 ATPase activity (% reduction in ATP hydrolysis relative to vehicle control) (human recombinant NLRP3; [4])	inhibition at 10 µM [1, 5]	Cytotoxicity TC50 (THP-1 cells)	inhibition at 10 µM [2]	inhibition at 100 µM (human recombinant NLRP3; 100 μM compound, ATP 800 μM, mean ± SEM, n = 4, read-out: Inhibition of NLRP3 ATPase activity (% reduction in ATP hydrolysis relative to vehicle control))	NLRP3 ATPase inhibition at 1 mM compared with 100 µM (human recombinant NLRP3; 1 mM vs 100 µM compound, data not shown)	Pyroptosis Decrease, % inhibition at 10 µM ([1]; 10 µM test compound, 1 h before ATP (5 mM, 90 min), vs vehicle-treated cells, mean ± SEM, NA = not active at 10 µM)	inhibition at 1 µM ([1]; Homo sapiens, THP-1, 1 µM test compound (Figure 3))	Inhibition of ATP hydrolysis by NLRP3 [3]	Prevention of DNBS-induced colitis (DNBS-induced colitis)
CCOC(=O)Cn1c(=O)n(C(=O)CCc2ccccc2Cl)c2ccccc21 [Compound 17, Ethyl 2-(3-(3-(2-chlorophenyl)propanoyl)-2-oxo-2,3-dihydro-1H-benzo[d]-imidazol-1-yl)acetate]	inactive	25.1 ± 4%	95.4 ± 1.1 µM	24.2 ± 11.2%	–	–	–	–	–	–
O=C(O)Cn1c(=O)n(C(=O)CCc2ccccc2Cl)c2ccccc21 [Compound 18, 2-(3-(3-(2-chlorophenyl)propanoyl)-2-oxo-2,3-dihydro-1H-benzo[d]-imidazol-1-yl)acetic acid]	able to reduce ATPase activity	36.4 ± 11.1%	>100 µM	21.1 ± 3.1%	27.2 ± 6.3%	no significant differences	active	20 to 30%	–	–
O=C(CCc1ccccc1Cl)n1c(=O)n(Cc2nn[nH]n2)c2ccccc21 [Compound 19, 1-((2H-tetrazol-5-yl)methyl)-3-(3-(2-chlorophenyl)propanoyl)-1,3-dihydro-2H-benzo[d]imidazol-2-one]	reduced the inhibitory potential	26.2 ± 1.6%	>100 µM	< 10%	–	–	–	–	–	–
C=C(Cc1ccccc1Cl)C(=O)OCC [INF39]	–	–	–	–	–	–	–	–	inhibited ATP hydrolysis	able to prevent DNBS-induced colitis
